What was measured:
[1] = system: non-growing UPEC CFT073; test: Dose-dependent killing analysis (CFU spot-plating) of stationary-phase UPEC; assay type: cell-based, Escherichia coli
How it was run: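 Killing assessed by CFU counts: overnight 37 °C LB agar spot plates (10 μl drops of 10-fold PBS dilutions) scored at the lowest dilution with distinct colonies. Samples were compound-treated non-growing UPEC CFT073, 200 μl per well. Performed as three biological replicates.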

[2] = system: non-growing S. aureus DSM2569; test: Dose-dependent killing analysis (CFU spot-plating) of stationary-phase S. aureus; assay type: cell-based, Staphylococcus aureus; details: for Log10(CFU/ml), Replicate #1 / Log10(CFU/ml), Replicate #2 / Log10(CFU/ml), Replicate #3 / Δlog10(CFU/ml): S. aureus; for Δlog10(CFU/ml): average killing vs before treatment (9,097)
How it was run: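 Survival was scored as CFU after overnight growth at 37 °C on LB agar, using spots from 10-fold PBS dilutions of treated cultures. Non-growing S. aureus DSM2569 had been exposed to compound for 24 h in 1:4 CA-MHB, pH 7.4. Three biological replicates were run.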

[3] = system: intracellular S. flexneri 5a M90T in TC7 cells; test: microbe, parasite or virus in culture; assay type: cell-based, Shigella flexneri
[4] = E. coli in 1:4 CA-MHB (pH 7.4), 0.25 μM
[5] = E. coli in 1:4 CA-MHB (pH 7.4), 0.5 μM
[6] = E. coli in 1:4 CA-MHB (pH 7.4), 1 μM
[7] = E. coli in 1:4 CA-MHB (pH 7.4), 2.5 μM
[8] = E. coli in 1:4 CA-MHB (pH 7.4), 5 μM
[9] = E. coli in 1:4 CA-MHB (pH 7.4), 10 μM
[10] = E. coli in LPM (pH 5.5), 0.25 μM
[11] = E. coli in LPM (pH 5.5), 0.5 μM
[12] = E. coli in LPM (pH 5.5), 2.5 μM

Cn1c(COP(=O)(NCCBr)NCCBr)cnc1[N+](=O)[O-] [Evofosfamide]
Log10(CFU/ml), Replicate #1 [1, 4]: 9.398 Log10(CFU/ml) | Log10(CFU/ml), Replicate #2 [1, 4]: 8.477 Log10(CFU/ml) | Log10(CFU/ml), Replicate #3 [1, 4]: 8.954 Log10(CFU/ml) | Δlog10(CFU/ml) ([1]; E. coli in 1:4 CA-MHB (pH 7.4), 0.25 μM, average killing vs before treatment (8.977)): 0.034 log10(CFU/ml) | Log10(CFU/ml), Replicate #1 [1, 5]: 9.279 Log10(CFU/ml) | Log10(CFU/ml), Replicate #2 [1, 5]: 9.114 Log10(CFU/ml) | Log10(CFU/ml), Replicate #3 [1, 5]: 8.301 Log10(CFU/ml) | Δlog10(CFU/ml) ([1]; E. coli in 1:4 CA-MHB (pH 7.4), 0.5 μM, average killing vs before treatment (8.977)): 0.079 log10(CFU/ml) | Log10(CFU/ml), Replicate #1 [1, 6]: 9.477 Log10(CFU/ml) | Log10(CFU/ml), Replicate #2 [1, 6]: 8.845 Log10(CFU/ml) | Log10(CFU/ml), Replicate #3 [1, 6]: 8.491 Log10(CFU/ml) | Δlog10(CFU/ml) ([1]; E. coli in 1:4 CA-MHB (pH 7.4), 1 μM, average killing vs before treatment (8.977)): 0.039 log10(CFU/ml) | Log10(CFU/ml), Replicate #1 [1, 7]: 9.415 Log10(CFU/ml) | Log10(CFU/ml), Replicate #2 [1, 7]: 8.954 Log10(CFU/ml) | Log10(CFU/ml), Replicate #3 [1, 7]: 8.491 Log10(CFU/ml) | Δlog10(CFU/ml) ([1]; E. coli in 1:4 CA-MHB (pH 7.4), 2.5 μM, average killing vs before treatment (8.977)): 0.024 log10(CFU/ml) | Log10(CFU/ml), Replicate #1 [1, 8]: 8.778 Log10(CFU/ml) | Log10(CFU/ml), Replicate #2 [1, 8]: 7.845 Log10(CFU/ml) | Log10(CFU/ml), Replicate #3 [1, 8]: 8.301 Log10(CFU/ml) | Δlog10(CFU/ml) ([1]; E. coli in 1:4 CA-MHB (pH 7.4), 5 μM, average killing vs before treatment (8.977)): 0.669 log10(CFU/ml) | Log10(CFU/ml), Replicate #1 [1, 9]: 9.000 Log10(CFU/ml) | Log10(CFU/ml), Replicate #2 [1, 9]: 8.000 Log10(CFU/ml) | Log10(CFU/ml), Replicate #3 [1, 9]: 7.778 Log10(CFU/ml) | Δlog10(CFU/ml) ([1]; E. coli in 1:4 CA-MHB (pH 7.4), 10 μM, average killing vs before treatment (8.977)): 0.718 log10(CFU/ml) | Log10(CFU/ml), Replicate #1 [1, 10]: 6.477 Log10(CFU/ml) | Log10(CFU/ml), Replicate #2 [1, 10]: 6.568 Log10(CFU/ml) | Log10(CFU/ml), Replicate #3 [1, 10]: 8.176 Log10(CFU/ml) | Δlog10(CFU/ml) ([1]; E. coli in LPM (pH 5.5), 0.25 μM, average killing vs before treatment (7.350)): 0.277 log10(CFU/ml) | Log10(CFU/ml), Replicate #1 [1, 11]: 6.602 Log10(CFU/ml) | Log10(CFU/ml), Replicate #2 [1, 11]: 6.903 Log10(CFU/ml) | Log10(CFU/ml), Replicate #3 [1, 11]: 8.230 Log10(CFU/ml) | Δlog10(CFU/ml) ([1]; E. coli in LPM (pH 5.5), 0.5 μM, average killing vs before treatment (7.350)): 0.105 log10(CFU/ml) | Log10(CFU/ml), Replicate #1 ([1]; E. coli in LPM (pH 5.5), 1 μM): 6.279 Log10(CFU/ml) | Log10(CFU/ml), Replicate #2 ([1]; E. coli in LPM (pH 5.5), 1 μM): 6.845 Log10(CFU/ml) | Log10(CFU/ml), Replicate #3 ([1]; E. coli in LPM (pH 5.5), 1 μM): 8.000 Log10(CFU/ml) | Δlog10(CFU/ml) ([1]; E. coli in LPM (pH 5.5), 1 μM, average killing vs before treatment (7.350)): 0.309 log10(CFU/ml) | Log10(CFU/ml), Replicate #1 [1, 12]: 6.301 Log10(CFU/ml) | Log10(CFU/ml), Replicate #2 [1, 12]: 6.079 Log10(CFU/ml) | Log10(CFU/ml), Replicate #3 [1, 12]: 7.954 Log10(CFU/ml) | Δlog10(CFU/ml) ([1]; E. coli in LPM (pH 5.5), 2.5 μM, average killing vs before treatment (7.350)): 0.572 log10(CFU/ml) | Log10(CFU/ml), Replicate #1 ([1]; E. coli in LPM (pH 5.5), 5 μM): 5.699 Log10(CFU/ml) | Log10(CFU/ml), Replicate #2 ([1]; E. coli in LPM (pH 5.5), 5 μM): 5.447 Log10(CFU/ml) | Log10(CFU/ml), Replicate #3 ([1]; E. coli in LPM (pH 5.5), 5 μM): 7.602 Log10(CFU/ml) | Δlog10(CFU/ml) ([1]; E. coli in LPM (pH 5.5), 5 μM, average killing vs before treatment (7.350)): 1.101 log10(CFU/ml) | Log10(CFU/ml), Replicate #1 ([1]; E. coli in LPM (pH 5.5), 10 μM): 5.176 Log10(CFU/ml) | Log10(CFU/ml), Replicate #2 ([1]; E. coli in LPM (pH 5.5), 10 μM): 4.954 Log10(CFU/ml) | Log10(CFU/ml), Replicate #3 ([1]; E. coli in LPM (pH 5.5), 10 μM): 7.146 Log10(CFU/ml) | Δlog10(CFU/ml) ([1]; E. coli in LPM (pH 5.5), 10 μM, average killing vs before treatment (7.350)): 1.592 log10(CFU/ml) | Log10(CFU/ml), Replicate #1 ([2]; 0.1 μM): 9.580 Log10(CFU/ml) | Log10(CFU/ml), Replicate #2 ([2]; 0.1 μM): 8.996 Log10(CFU/ml) | Log10(CFU/ml), Replicate #3 ([2]; 0.1 μM): 9.049 Log10(CFU/ml) | Δlog10(CFU/ml) ([2]; 0.1 μM): -0.111 log10(CFU/ml) | Log10(CFU/ml), Replicate #1 ([2]; 0.5 μM): 9.362 Log10(CFU/ml) | Log10(CFU/ml), Replicate #2 ([2]; 0.5 μM): 9.017 Log10(CFU/ml) | Log10(CFU/ml), Replicate #3 ([2]; 0.5 μM): 8.881 Log10(CFU/ml) | Δlog10(CFU/ml) ([2]; 0.5 μM): 0.011 log10(CFU/ml) | Log10(CFU/ml), Replicate #1 ([2]; 2.5 μM): 8.863 Log10(CFU/ml) | Log10(CFU/ml), Replicate #2 ([2]; 2.5 μM): 8.724 Log10(CFU/ml) | Log10(CFU/ml), Replicate #3 ([2]; 2.5 μM): 8.663 Log10(CFU/ml) | Δlog10(CFU/ml) ([2]; 2.5 μM): 0.347 log10(CFU/ml) | Log10(CFU/ml), Replicate #1 ([2]; 10 μM): 5.954 Log10(CFU/ml) | Log10(CFU/ml), Replicate #2 ([2]; 10 μM): 5.845 Log10(CFU/ml) | Log10(CFU/ml), Replicate #3 ([2]; 10 μM): 5.748 Log10(CFU/ml) | Δlog10(CFU/ml) ([2]; 10 μM): 3.248 log10(CFU/ml) | reduction of non-growing S. aureus ([2]; at 10 µM, 24 h treatment): below the limit of detection | MIC:IC50 ratio ([3]; S. flexneri MIC in TSB versus intracellular IC50): below 0.5 | IC50 ([3]; Shigella flexneri, TC7, 14 h): 102 µM | Fluorescence intensity (RFU), Mean, 0.25 x MIC ([3]; TC7 cells infected with GFP-expressing S. flexneri, 14 h treatment, 0.25 x MIC): 9046.58 RFU | Fluorescence intensity (RFU), Mean, 0.5 x MIC ([3]; TC7 cells infected with GFP-expressing S. flexneri, 14 h treatment, 0.5 x MIC): 8823.33 RFU | Fluorescence intensity (RFU), Mean, 2 x MIC ([3]; TC7 cells infected with GFP-expressing S. flexneri, 14 h treatment, 2 x MIC): 7151.78 RFU | Fluorescence intensity (RFU), Mean, 4 x MIC ([3]; TC7 cells infected with GFP-expressing S. flexneri, 14 h treatment, 4 x MIC): 5305.28 RFU | Fluorescence intensity (RFU), Mean, 8 x MIC ([3]; TC7 cells infected with GFP-expressing S. flexneri, 14 h treatment, 8 x MIC): 3462.11 RFU | Fluorescence intensity (RFU), Mean, MIC ([3]; TC7 cells infected with GFP-expressing S. flexneri, 14 h treatment, MIC): 8378.86 RFU

From PMC11992225, “Antibacterial compounds against non-growing and intracellular bacteria” (npj Antimicrobials and Resistance, 2025)
